According to US10647719B2, “Bicyclic compounds as dual ATX/CA inhibitors” (Hoffmann-La Roche Inc., priority 2015, dated 2020):
Read-outs that look alike come from different tables or passages of the source.

Legend:
human ATX = human ATX (Homo sapiens (Human), UniProt Q13822); assay: Human ATX enzyme inhibition assay (fluorescence quenching, MR121 substrate); assay type: biochemical
Procedure: Human ATX Enzyme Inhibition Assay
ATX inhibition was measured by a fluorescence quenching assay using a specifically labeled substrate analogue (MR121 substrate). To obtain this MR121 substrate, BOC and TBS protected 6-amino-hexanoic acid (R)-3-({2-[3-(2-{2-[2-(2-amino-ethoxy)-ethoxy]-ethoxy}-ethoxy)-propionylamino]-ethoxy}-hydroxy-phosphoryloxy)-2-hydroxy-propyl ester (Ferguson et al., Org Lett 2006, 8 (10), 2023) was labeled with MR121 fluorophore (CAS 185308-24-1, 1-(3-carboxypropyl)-11-ethyl-1,2,3,4,8,9,10,11-octahydro-dipyrido[3,2-b:2′,3′-i]phenoxazin-13-ium) on the free amine of the ethanolamine side and then, after deprotection, subsequently with tryptophan on the side of the aminohexanoic acid.
(§1) Assay working solutions were made as follows:
Assay buffer (50 mM Tris-HCl, 140 mM NaCl, 5 mM KCl, 1 mM CaCl2, 1 mM MgCl2, 0.01% Triton-X-100, pH 8.0;
ATX solution: ATX (human His-tagged) stock solution (1.08 mg/mL in 20 mM bicine, pH 8.5, 0.15 M NaCl, 10% glycerol, 0.3% CHAPS, 0.02% NaN3), diluted to 1.4-2.5× final concentration in assay buffer;
MR121 substrate solution: MR121 substrate stock solution (800 μM MR121 substrate in DMSO), diluted to 2-5× final concentration in assay buffer.
Test compounds (10 mM stock in DMSO, 8 μL) were obtained in 384 well sample plates (Corning Costar #3655) and diluted with 8 μL DMSO. Row-wise serial dilutions were made by transferring 8 μL cpd solution to the next row up to row O. The compound and control solutions were mixed five times and 2 μL were transferred to 384 well assay plates (Corning Costar #3702). Then, 15 μL of 41.7 nM ATX solution was added (30 nM final concentration), mixed five times and then incubated for 15 minutes at 30° C. 10 μL of MR121 substrate solution was added (1 μM final concentration), mixed 30 times and then incubated for 15 minutes at 30° C.

[1] = biological target: Human carbonic anhydrase II (hCA-II) (Homo sapiens (Human), UniProt P00918); assay: Human carbonic anhydrase-II inhibition assay (absorbance, 4-nitrophenyl acetate substrate); assay type: biochemical
Procedure: Human Carbonic Anhydrase-II Inhibition Assay
Human carbonic anhydrase II (hCA-II) inhibition was measured by an absorbance method using 4-nitrophenyl acetate (4-NPA) as its substrate. 4-NPA can be catalyzed by active hCA II via a zinc-hydroxide mechanism. The nitrophenolate in the products can be ionized to generate a bright yellow anion with high absorbance at 348 to 400 nm, as reported in the literature (Armstrong et al., J. Biol. Chem. 1966, 241, 5137-5149). OD340 nm was chosen for detecting hCA II substrate conversion.
as §1
Assay buffer: 50 mM MOPS, 33 mM Na2SO4, 1 mM EDTA, 0.5 mg/ml BSA, pH 7.5;
Enzyme solution: hCA-II (human, full length) stock solution (1.0 mg/mL in 20 mM HEPES, 50 mM NaCl, pH 7.4), diluted to 2133× final concentration in assay buffer;
4-NPA substrate solution: 4-NPA substrate stock solution (250 mM in DMSO, stored at −20° C.), diluted to 50× final concentration in deionized water.
Test compounds (10 mM stock in DMSO, 100 μL) were obtained in […] sample plates (Corning Costar #3655) and diluted to 0.5 mM. Column-wise serial dilutions were made by transferring 20 μL compound solutions to the next column, from column 3 up to 22. After this, 1.2 μL were transferred to 384 well assay plates (Corning Costar #3701). Then 30 μL of 16 nM hCA II solution was added (8 nM final concentration), mixed five times. 30 μL of 4-NPA substrate solution was added (2.5 mM final concentration), mixed five times. Absorbance at 340 nm was then measured immediately as time zero. The assay plates were incubated at room temperature for 1 hour and then measured as time 1 hour (Perkin Elmer EnVision 2103; Filter: Photometric 340; Light intensity 60%; Number of flashes: 10). IC50 values and Ki values were calculated from these readouts.

[2] = human His-tagged ATX 30 nM, MR121 substrate 1 μM, 30° C., read-out: ATX IC50
[3] = hCA II 8 nM, 4-NPA 2.5 mM, absorbance 340 nm, room temperature 1 hour, read-out: CA-II IC50

| Compound | IC50 (human ATX) [nM] | IC50 [1] [nM] | IC50 (human ATX; [2]) [nM] | IC50 [1, 3] [nM] |
| --- | --- | --- | --- | --- |
| CN1CCC(COc2cc(C(=O)N3CC4=C(C3)CN(C(=O)c3ccc(S(N)(=O)=O)c(F)c3F)C4)cc(C3CC3)n2)CC1 [Example 1.34, 4-[5-[2-cyclopropyl-6-[(1-methylpiperidin-4-yl)methoxy]pyridine-4-carbonyl]-1,3,4,6-tetrahydropyrrolo[3,4-c]pyrrole-2-carbonyl]-2,3-difluorobenzenesulfonamide] | 12 | 1 | – | – |
| CC(C)(C)C(=O)Nc1cc(C#N)c(Cl)cc1COC(=O)N1CC2=C(C1)CN(C(=O)c1ccc(S(N)(=O)=O)cn1)C2 [Example 2.00, [5-Chloro-4-cyano-2-(2,2-dimethylpropanoylamino)phenyl]methyl 2-(5-sulfamoylpyridine-2-carbonyl)-1,3,4,6-tetrahydropyrrolo[3,4-c]pyrrole-5-carboxylate] | 1 | 24 | – | – |
| NS(=O)(=O)c1ccc(C(=O)N2CCC3=C(CCN(C(=O)OCc4ccc(OC(F)(F)F)cc4)C3)C2)c(F)c1 [Example 2.01, [4-(trifluoromethoxy)phenyl]methyl 6-(2-fluoro-4-sulfamoylbenzoyl)-1,3,4,5,7,8-hexahydro-2,6-naphthyridine-2-carboxylate] | 14 | 18 | – | – |
| NS(=O)(=O)c1ccc(C(=O)N2CC3=C(CN(C(=O)OCc4ccc(OC(F)(F)F)cc4)C3)C2)nc1 [Example 2.02, [4-(trifluoromethoxy)phenyl]methyl 2-(5-sulfamoylpyridine-2-carbonyl)-1,3,4,6-tetrahydropyrrolo[3,4-c]pyrrole-5-carboxylate] | 3 | 8 | – | – |
| NS(=O)(=O)c1ccc(C(=O)N2CC3=C(CN(C(=O)OCc4ccc(OC(F)(F)F)cc4)C3)C2)c(F)c1 [Example 2.03, [4-(trifluoromethoxy)phenyl]methyl 2-(2-fluoro-4-sulfamoylbenzoyl)-1,3,4,6-tetrahydropyrrolo[3,4-c]pyrrole-5-carboxylate] | 2 | 6 | – | – |
| Cc1nnn(Cc2cc(Cl)cnc2COC(=O)N2CC3=C(C2)CN(C(=O)c2ccc(S(N)(=O)=O)cc2F)C3)n1 [Example 2.04, [5-chloro-3-[(5-methyltetrazol-2-yl)methyl]pyridin-2-yl]methyl 2-(2-fluoro-4-sulfamoylbenzoyl)-1,3,4,6-tetrahydropyrrolo[3,4-c]pyrrole-5-carboxylate] | 12 | 1.9 | – | – |

Other lines, results leading:

| IC50 (human ATX) [nM] | IC50 [1] [nM] | IC50 (human ATX; [2]) [nM] | IC50 [1, 3] [nM] | Compound |
| --- | --- | --- | --- | --- |
| – | – | 5 | 9 | NS(=O)(=O)c1ccc(C(=O)N2CC3=C(CN(C(=O)/C=C/c4ccc(OC(F)(F)F)cc4)C3)C2)c(F)c1 [Example 3.00, 3-Fluoro-4-[2-[(E)-3-[4-(trifluoromethoxy)phenyl]prop-2-enoyl]-1,3,4,6-tetrahydropyrrolo[3,4-c]pyrrole-5-carbonyl]benzenesulfonamide] |
| 5 | 12 | – | – | NS(=O)(=O)c1ccc(C(=O)N2CC3=C(CN(C(=O)CCc4ccc(OC(F)(F)F)cc4)C3)C2)nc1 [Example 3.01, 6-[2-[3-[4-(trifluoromethoxy)phenyl]propanoyl]-1,3,4,6-tetrahydropyrrolo[3,4-c]pyrrole-5-carbonyl]pyridine-3-sulfonamide] |
| 6 | 5 | – | – | NS(=O)(=O)c1ccc(C(=O)N2CC3=C(CN(C(=O)CCc4ccc(OC(F)(F)F)cc4)C3)C2)c(F)c1 [Example 3.02, 3-fluoro-4-[2-[3-[4-(trifluoromethoxy)phenyl]propanoyl]-1,3,4,6-tetrahydropyrrolo[3,4-c]pyrrole-5-carbonyl]benzenesulfonamide] |
| 4 | 17 | – | – | NS(=O)(=O)c1ccc(C(=O)N2CC3=C(CN(C(=O)/C=C/c4ccc(OC(F)(F)F)cc4)C3)C2)nc1 [Example 3.03, 6-[2-[(E)-3-[4-(trifluoromethoxy)phenyl]prop-2-enoyl]-1,3,4,6-tetrahydropyrrolo[3,4-c]pyrrole-5-carbonyl]pyridine-3-sulfonamide] |
| 7 | 17 | – | – | NS(=O)(=O)c1ccc(C(=O)N2CC3=C(CN(C(=O)COc4ccc(OC(F)(F)F)cc4)C3)C2)nc1 [Example 3.04, 6-[2-[2-[4-(trifluoromethoxy)phenoxy]acetyl]-1,3,4,6-tetrahydropyrrolo[3,4-c]pyrrole-5-carbonyl]pyridine-3-sulfonamide] |
| 4 | 9 | – | – | NS(=O)(=O)c1ccc(C(=O)N2CC3=C(CN(C(=O)COc4ccc(OC(F)(F)F)cc4)C3)C2)c(F)c1 [Example 3.05, 3-fluoro-4-[2-[2-[4-(trifluoromethoxy)phenoxy]acetyl]-1,3,4,6-tetrahydropyrrolo[3,4-c]pyrrole-5-carbonyl]benzenesulfonamide] |
| 2 | 16 | – | – | Cc1nnn(Cc2cc(C#N)ccc2CCC(=O)N2CC3=C(C2)CN(C(=O)c2ccc(S(N)(=O)=O)cc2F)C3)n1 [Example 3.06, 4-[2-[3-[4-cyano-2-[(5-methyltetrazol-2-yl)methyl]phenyl]propanoyl]-1,3,4,6-tetrahydropyrrolo[3,4-c]pyrrole-5-carbonyl]-3-fluorobenzenesulfonamide] |
| 4 | 5 | – | – | Cc1nnn(Cc2cc(Cl)ccc2CCC(=O)N2CC3=C(C2)CN(C(=O)c2ccc(S(N)(=O)=O)cc2F)C3)n1 [Example 3.07, 4-[2-[3-[4-chloro-2-[(5-methyltetrazol-2-yl)methyl]phenyl]propanoyl]-1,3,4,6-tetrahydropyrrolo[3,4-c]pyrrole-5-carbonyl]-3-fluorobenzenesulfonamide] |
| 1 | 6 | – | – | Cc1cnn(Cc2cc(C(F)(F)F)ccc2CCC(=O)N2CC3=C(C2)CN(C(=O)c2ccc(S(N)(=O)=O)cc2F)C3)n1 [Example 3.08, 3-fluoro-4-[2-[3-[2-[(4-methyltriazol-2-yl)methyl]-4-(trifluoromethyl)phenyl]propanoyl]-1,3,4,6-tetrahydropyrrolo[3,4-c]pyrrole-5-carbonyl]benzenesulfonamide] |
| 1 | 11 | – | – | Cc1cn(Cc2cc(C(F)(F)F)ccc2CCC(=O)N2CC3=C(C2)CN(C(=O)c2ccc(S(N)(=O)=O)cc2F)C3)nn1 [Example 3.09, 3-fluoro-4-[2-[3-[2-[(4-methyltriazol-1-yl)methyl]-4-(trifluoromethyl)phenyl]propanoyl]-1,3,4,6-tetrahydropyrrolo[3,4-c]pyrrole-5-carbonyl]benzenesulfonamide] |
| 2 | 5 | – | – | Cc1nnn(Cc2cc(C(F)(F)F)cnc2CCC(=O)N2CC3=C(C2)CN(C(=O)c2ccc(S(N)(=O)=O)cc2F)C3)n1 [Example 3.10, 3-fluoro-4-[2-[3-[3-[(5-methyltetrazol-2-yl)methyl]-5-(trifluoromethyl)pyridin-2-yl]propanoyl]-1,3,4,6-tetrahydropyrrolo[3,4-c]pyrrole-5-carbonyl]benzenesulfonamide] |
| – | – | 10 | 3.8 | Cc1nnn(Cc2cc(C(F)(F)F)ccc2CCC(=O)N2CC3=C(C2)CN(C(=O)c2ncc(S(N)(=O)=O)cc2F)C3)n1 [Example 4.00, 5-fluoro-6-[2-[3-[2-[(5-methyltetrazol-2-yl)methyl]-4-(trifluoromethyl)phenyl]propanoyl]-1,3,4,6-tetrahydropyrrolo[3,4-c]pyrrole-5-carbonyl]pyridine-3-sulfonamide] |
